Data reported in patent publication US5994629A, “Positive selection” (priority 1991, dated 1999).

Key:
[1] = biological target: β-glucuronidase from E. coli (Escherichia coli, UniProt P05804); experiment: Hydrolysis by β-glucuronidase (GUS), HPLC/TLC; type: biochemical; conditions: 50 mM sodium phosphate buffer pH 7.0, 37° C.; HPLC/TLC
Protocol: […] […] This confirms the identity of the product as a conjugate of BA and β-D-glucuronic acid.
[…] The presence of hydrolysis products is then determined using HPLC and TLC.

[2] = system: leaf discs of tobacco without (GUS-) introduced β-glucuronidase genes; type: cell-based, Nicotiana tabacum 'Wisconsin 38'; conditions: test compounds at several concentrations up to 250 μM in MSO
[3] = system: leaf discs of tobacco with (GUS+) introduced β-glucuronidase genes; type: cell-based, Nicotiana tabacum 'Wisconsin 38'; conditions: test compounds at several concentrations up to 250 μM in MSO

Sequence of β-glucuronidase from E. coli (P05804 whole entry, looked up): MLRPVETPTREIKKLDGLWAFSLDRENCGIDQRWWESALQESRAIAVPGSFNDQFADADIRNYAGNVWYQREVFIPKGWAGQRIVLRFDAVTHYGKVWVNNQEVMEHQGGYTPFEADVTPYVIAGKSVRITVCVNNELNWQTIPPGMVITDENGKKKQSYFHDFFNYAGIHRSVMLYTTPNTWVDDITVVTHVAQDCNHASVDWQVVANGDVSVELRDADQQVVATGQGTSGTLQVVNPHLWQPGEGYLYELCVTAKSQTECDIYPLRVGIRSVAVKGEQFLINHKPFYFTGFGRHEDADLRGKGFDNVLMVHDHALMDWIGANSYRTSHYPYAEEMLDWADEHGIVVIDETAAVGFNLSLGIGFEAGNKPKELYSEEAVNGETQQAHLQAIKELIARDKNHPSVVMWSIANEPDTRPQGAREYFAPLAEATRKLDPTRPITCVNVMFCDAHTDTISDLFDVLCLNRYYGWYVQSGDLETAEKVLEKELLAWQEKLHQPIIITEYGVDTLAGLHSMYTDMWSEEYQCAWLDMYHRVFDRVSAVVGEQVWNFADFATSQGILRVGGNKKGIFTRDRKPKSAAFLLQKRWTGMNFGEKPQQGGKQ

SMILES: CC(C)=CCNc1ncn([C@@H]2O[C@H](C(=O)[O-])[C@@H](O)[C@H](O)[C@H]2O)c2ncnc1-2.[Na+] [IP3GN sodium salt, 3-β-D-glucopyranuronosyl-6-(3-methyl-but-2-enylamino)purine, sodium salt]
- Hydrolysis by β-glucuronidase (GUS), result in words [1]: removal of the UV spot corresponding to IP3GN
- Shoot formation, GUS- [2]: + ("+" means shoot formation at concentrations below 250 μM)
- Shoot formation, GUS+ [3]: + ("+" means shoot formation at concentrations below 250 μM)
